Source: patent US3954793A, “1-(2-Propynyl)-1 H-indazole compounds” (priority 1973, dated 1976)
Read-outs that look alike come from different tables or passages of the source.

What was measured:
[1] = system: Wilson strain house flies; type: in vivo, Wilson strain (susceptible); details: for Contact Synergistic Ratio, Pyrolan: LC50 pyrolan alone / LC50 with synergist
Method in brief: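 Wilson strain house flies held at room temperature in glass jars coated with acetone-deposited insecticide film, alone or with synergist at 5:1 synergist:insecticide by weight.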

[2] = system: German male cockroaches (Blatella Germanicus); assay: topical application to thorax, 24 hour mortality of German male cockroaches; type: in vivo
Procedure: The synergistic effect with mobam of synergist compounds I-B, II-H, II-K and IV-C is further illustrated by the 24 hour mortality data of German male cockroaches (Blatella Germanicus) shown in Table XXXX. The synergists and insecticide were diluted in acetone and applied in small droplets to the thorax of the insect. These doses of synergist alone gave zero percent insect mortality.
The synergistic effect with GS 13005 of compounds I-B, II-H, II-K, II-P, II-Q, II-R and IV-C is illustrated by the 24 hour mortality of German male cockroaches shown in Table XXXXI. These doses of synergist alone caused zero percent insect mortality.

[3] = system: Swiss albino, white male mice; assay: acute toxicity and synergism of acute toxicity in mice; type: in vivo; details: for number of mice dead, with Dimetilan: 48 hours
Method in brief: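 Male Swiss albino mice (23 to 27 g, five to six weeks), eight per dose, dosed intraperitoneally in corn oil: dimetilan alone at 4 to 32 mg per kg, synergists alone at 1000 mg/kg with deaths counted at 72 hours. For synergism, synergist given 1 hour before insecticide, lethality observed for at least 6 hours.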

[4] = system: polyvalent resistant (CH strain) houseflies; assay: whole plant or invertebrate; type: in vivo; details: CH strain; for percent kill after 24 hours, with Dimetilan: Dimetilan 2 + synergist 4 μg/fly; for percent kill after 24 hours, with GS 13005: GS 13005 1 + synergist 2 μg/fly; for percent kill after 24 hours, with GS 13798: GS 13798 1 + synergist 2 μg/fly; for mortality at 10 µg/fly: Musca domestica, topical, 24 h, read-out: percent kill after 24 hours, synergist alone; for mortality at 10 µg/fly / percent kill after 24 hours, synergist alone: insecticide 0, synergist 10 μg/fly; for percent kill after 24 hours, with pyrethrum: Pyrethrum 2 + synergist 4 μg/fly
Procedure: The effect of O-(2-propynyl) oximes with Dimetilan and with GS 13798 was obtained from tests on polyvalent resistant (CH strain) houseflies that had been chilled and to the dorsal region of which was applied an acetone solution of synergist and insecticide at a ratio of two to one. Duplicate tests were performed using 10 four to five-day old female houseflies per test. After dosage, the flies were put in a plastic petri dish with cotton soaked in a sugar-water solution. These doses of insecticide used without synergist caused 10-40% mortality.
In Table IX, and in the tables following it, the doses of topically applied insecticides and of synergists unless otherwise noted are expressed as micrograms per fly (μg/fly).
The effect of compounds II-C, II-D and II-E with Dimetilan and GS 13798 was determined, following the procedure of Example 5, from tests on polyvalent resistant (CH strain) houseflies. These doses of insecticide used without synergist caused 10-40% mortality.
The synergistic effect with GS 13005 of compounds I-A, I-B, I-D, I-E, I-F, I-G and I-I was determined from topical application tests to IN/WHO strain, Rutgers A strain and polyvalent CH strain houseflies using the procedures of Example 5. The percent kills of the IN/WHO strain flies after 24 hours are shown in Table XXVIII; of the Rutgers A strain, in Table XXIX; and of the polyvalent CH strain, in Table XXX. The doses of insecticide alone to the CH strain files caused 10-40% mortality.
The synergistic effect with Diazinon and GS 13005 of various of the benzyl 2-propynyl ethers identified in Tables II and IIa was determined by topical application tests on IN/WHO strain, and Rutgers A strain and polyvalent, resistant, CH strain houseflies using the procedures of Example 5. The percent kills after 24 hours of IN/WHO strain flies are shown in Table XXXI; of Rutgers A strain flies, in Table XXXII; and of CH strain flies, in Table XXXIII. The doses of insecticide alone to the CH strain flies caused 10-40% mortality.
The synergistic effect with pyrethrum of various synergist compounds was determined by topical application tests on polyvalent, resistant CH strain houseflies following the procedure of Example 5. Application of the insecticide alone caused 10-40% mortality.

[5] = system: houseflies; assay: topical application with Diazinon, Table XXVII (strain not given); type: in vivo; details: for mortality at 10 µg/fly: Musca domestica, topical, 24 h, Diazinon 0, synergist 10 μg/fly, read-out: percent kill after 24 hours, synergist alone (Table XXVII)
[6] = synergist to insecticide 5:1 by weight
[7] = Dimetilan 8 + synergist 80 mg/kg i.p., eight mice
[8] = Dimetilan 8 + synergist 240 mg/kg i.p., eight mice

Compound	Contact Synergistic Ratio, Pyrolan [1, 6]	Contact Synergistic Ratio, Carbaryl ([1]; in vivo)	number of mice dead, with Dimetilan [3, 7]	number of mice dead, with Dimetilan [3, 8]	percent kill after 24 hours, with Dimetilan [4] [%]	percent kill after 24 hours, with GS 13005 [4] [%]	mortality at 10 µg/fly [4] [%]	percent kill after 24 hours, synergist alone [4] [%]	mortality at 10 µg/fly [5] [%]	percent kill after 24 hours, with pyrethrum [4] [%]	other results
C#CCON=Cc1cccc([N+](=O)[O-])c1 [I-B]	35	270	1	6	–	–	–	–	–	–	24 hour mortality, with GS 13005 ([2]; GS 13005 dose 0.08 + synergist 0.40, pretreated with synergist two hours before insecticide): 95%; 24 hour mortality, with GS 13005 ([2]; GS 13005 dose 0.08 + synergist 4.0, cockroaches): 40%; 24 hour mortality, with Mobam ([2]; Mobam dose 0.12 + synergist 0.60, pretreated with synergist two hours before insecticide): 80%; 24 hour mortality, with Mobam ([2]; Mobam dose 0.16 + synergist 0.80, cockroaches): 50%; percent insect mortality, synergist alone (mobam test doses) ([2]; synergist doses of Table XXXX, no insecticide): zero; percent insect mortality, synergist alone (GS 13005 test doses) ([2]; synergist doses of Table XXXXI, no insecticide): zero
C#CCON=C(C)c1ccc(Cl)cc1 [I-D]	25	177	1	6	100	100	0	0	0	–	percent kill after 24 hours, with GS 13798 [4]: 100%; percent kill after 24 hours, with Diazinon (Table XXVII) ([5]; Diazinon 5 + synergist 10 μg/fly): 100%
C#CCON=C(C)c1ccc2ccccc2c1 [I-F]	50	200	0	4	100	100	0	0	–	35	–
C#CCON=Cc1ccc(Cl)cc1Cl [I-G]	–	–	–	0	–	100	0	0	0	47	–
C#CCON=Cc1cccc2ccccc12 [I-I]	–	–	0	3	–	47	0	0	0	–	–
C#CCOCc1ccc(Cl)c(Cl)c1 [II-C]	15	–	–	0	100	–	0	0	–	–	Contact Synergistic Ratio, Carbaryl ([1]; LC50 carbaryl alone / LC50 with synergist, synergist to insecticide 5:1 by weight): 100
C#CCOCc1ccc(Cl)c(Cl)c1Cl [II-D]	30	200	–	0	100	–	0	0	–	30	percent kill after 24 hours, with GS 13798 [4]: 100%; number of mice dead, with GS 13005 ([3]; GS 13005 71 + synergist 213 mg/kg): 3; number of mice dead, with Methadone ([3]; Methadone 32 + synergist 215 mg/kg): 2; number of mice dead, with Secobarbital ([3]; Secobarbital 90 + synergist 215 mg/kg): 1; number of mice dead, synergist alone ([3]; synergist 1000 mg/kg i.p., Dimetilan 0, 72 hours, eight mice): 0
